Active and inactive are the calls of the source. How the calls were made is not given here.
Assay: non-covalent RecA intein splicing inhibitors, dose response, biochemical, cell-free, fluorescence, secondary screen (AID 449750)
With Cc1cccc(NC2=C(Cl)C(=O)OC2OC(=O)c2ccco2)c1 (configuration not stated) the AC50 was > 38 µM (inactive).
For COc1cccc(-c2[nH]nc3c2C(c2ccc(C)o2)C(C#N)=C(N)O3)c1 (configuration not stated), the AC50 was 26.2 µM.
For CC1=NNC(=O)/C1=C\c1cn(-c2ccccc2)nc1-c1ccc(F)cc1, the AC50 was 12 µM.
In the case of Cc1cc(=O)n(CCCc2ccccc2)[nH]1, the AC50 is reported as 36.5 µM.
For O=c1[nH]cc(N=Cc2cc([N+](=O)[O-])ccc2O)c(=O)[nH]1, the AC50 was > 38 µM (inactive).
Cc1[nH]n(-c2ccccc2)c(=O)c1C(C[N+](=O)[O-])c1ccccc1Cl (configuration not stated) showed an AC50 of 7.38 µM.
COc1ccc(C(CCN(Cc2ccc(OC)c(OC)c2)C(=O)CCl)c2ccccc2)cc1 (configuration not stated) showed an AC50 of 0.613 µM.
In the case of Cc1ccc(C(=O)C(OC(=O)CN2C(=O)c3ccccc3C2=O)c2ccccc2)cc1C (configuration not stated), the AC50 is reported as > 38 µM (inactive).
With O=C(NCc1ccccc1)c1nc(S(=O)(=O)Cc2ccccc2)ncc1Cl the AC50 was > 38 µM (inactive).
With CCCCCn1c(NC(=O)c2ccco2)c(S(=O)(=O)c2ccc(C)cc2)c2nc3ccccc3nc21 the AC50 was > 38 µM (inactive).
In the case of O=C(Oc1ccccc1N1C(=O)CCC1=O)c1ccco1, the AC50 is reported as > 38 µM (inactive).
CN1CCc2nc(SCC(=O)Nc3ccc(OC(F)(F)F)cc3)c(C#N)c(-c3cccs3)c2C1 showed an AC50 of 23.7 µM.
In the case of O=C(Oc1ccc(N(C(=O)c2ccncc2)S(=O)(=O)c2ccc(Cl)cc2)cc1)c1ccncc1, the AC50 is reported as > 38 µM (inactive).
With CCCCCCCCOC(=O)c1c(CSC(=N)N)n(C)c2cc(Br)c(OC(C)=O)cc12 the AC50 was 14.5 µM.
Molecule N#C/C(=C\c1cc(Cl)c(OCc2ccc(Cl)cc2)c(Cl)c1)C(N)=O has an AC50 of 9.11 µM.
For C/C(CC(=O)Nc1cc(C)ccn1)=N\NC(=O)c1ccccc1C, the AC50 was > 38 µM (inactive).
For Cc1cccc(N2C(=O)C(Cl)=C(N3CCOCC3)C2=O)c1, the AC50 was > 38 µM (inactive).
For Cc1cc(-c2ccccc2)nc2cc(C(=O)N(Cc3ccccc3)Cc3ccccc3)nn12, the AC50 was 18.8 µM.
In the case of O=C(CCl)Nc1cc(S(=O)(=O)N2CCCCCC2)ccc1Cl, the AC50 is reported as 4.92 µM.
Cc1[nH][nH]c(=O)c1C(c1ccc(N(C)C)c(Br)c1)c1c(C)[nH][nH]c1=O showed an AC50 of 38.7 µM.
For Cc1nc2ccccc2c2c1C(=O)N(c1cccc(C(=O)O)c1)C2=O, the AC50 was > 38 µM (inactive).
With CC(=O)Nc1ccc(NC(=O)c2nc(S(=O)(=O)Cc3ccccc3)ncc2Cl)cc1 the AC50 was > 38 µM (inactive).
For CC(C)(C)Nc1nc(Cl)nc(N(C#N)CN2C(=O)c3ccccc3S2(=O)=O)n1, the AC50 was > 38 µM (inactive).
Work on O=C1C(=O)c2ccccc2-c2ccccc21 yielded an AC50 of 16.8 µM.
With COCC(C)NC(=O)CCS(=O)(=O)c1nc(-c2ccc(OC)cc2)cc(C(F)(F)F)n1 (configuration not stated) the AC50 was > 38 µM (inactive).
Work on CCCCc1ccc(NC(=O)CSCc2cc(=O)[nH][nH]2)cc1 yielded an AC50 of 27.1 µM.
Work on CCN(CC)S(=O)(=O)c1cc(NC(=O)Cn2ncc(Cl)c(Cl)c2=O)ccc1C yielded an AC50 of 38.7 µM.
For Cc1nnc(NC(=O)c2nc(S(=O)(=O)Cc3ccccc3C)ncc2Cl)s1, the AC50 was > 38 µM (inactive).
With O=c1[nH]c(O)c(N=Nc2cc([N+](=O)[O-])ccc2O)c(=O)[nH]1 the AC50 was 2.29 µM.
Work on COc1ccc(/C=C/C(=O)c2ccncc2)c2ccccc12 yielded an AC50 of 18.6 µM.
Work on O=C(Nc1ccc(Cl)c(Cl)c1)Nc1ccccc1NS(=O)(=O)c1cccs1 yielded an AC50 of 30.3 µM.
With CC1(C)Nc2ccc(O)cc2-c2c1ssc2=S the AC50 was > 38 µM (inactive).
O=C1C(Nc2ccc(O)cc2)=C/C(=N/S(=O)(=O)c2cccs2)c2ccccc21 showed an AC50 of 0.179 µM.
O=C(CCCN1C(=O)/C(=C\c2ccccc2)SC1=S)Nc1ccc(O)cc1C(=O)O showed an AC50 of 32.7 µM.
In the case of Fc1ccc(-[n+]2nc(Nc3ccccc3)sc2-c2c3ccccc3cc3ccccc23)cc1, the AC50 is reported as 12.4 µM.
With Oc1cnn(-c2ccccc2)c1 the AC50 was > 38 µM (inactive).
For Cc1cccc(N(Cc2cc(=O)[nH]c3ccccc23)C(=O)CCl)c1, the AC50 was 6.83 µM.
For Cc1nc(Nc2ccc(O)cc2)c2c3c(sc2n1)CCCC3, the AC50 was > 38 µM (inactive).
Cc1cccc(C)c1-n1cccc1/C=C1\SC(=S)N(c2cccc(C(=O)O)c2)C1=O gave an AC50 of 7.18 µM.
For O=c1[nH]c(Nc2ccccn2)cc2ccccc12, the AC50 was > 38 µM (inactive).
Cc1ccc(-c2[nH]nc3c2C(c2ccc(OC(=O)N4CCOCC4)cc2)C(C#N)=C(N)O3)cc1 (configuration not stated) gave an AC50 of 21.1 µM.
With O=C1CCCC2=C1C(c1ccc3c(c1)OCO3)c1c([nH]n(-c3ccccc3)c1=O)N2 (configuration not stated) the AC50 was 6.7 µM.
For CC(C)(C)c1cc(C(=O)CCN2CCOCC2)cc(C(C)(C)C)c1O, the AC50 was 12.1 µM.
N#CC1=C(N)Oc2n[nH]c(-c3ccccc3)c2C1c1cccc(OC(=O)N2CCOCC2)c1 (configuration not stated) showed an AC50 of 32.7 µM.
In the case of COc1ccc(NC(=O)c2cccc(N3C(=O)C4C5C=CC(C5)C4C3=O)c2)cc1Cl (configuration not stated), the AC50 is reported as > 38 µM (inactive).
CCc1ccc(Nc2n[n+](-c3ccccc3)c(-c3c(Cl)cccc3Cl)s2)cc1 gave an AC50 of 8.26 µM.
With CC(NC(=O)/C(C#N)=C/c1ccc([N+](=O)[O-])o1)c1ccccc1 (configuration not stated) the AC50 was > 38 µM (inactive).
Molecule O=S(=O)(Nc1ccc(O)c2ccccc12)c1ccc(OC(F)(F)F)cc1 has an AC50 of 0.779 µM.
Work on COc1cc(C(c2c(C)[nH][nH]c2=O)c2c(C)[nH][nH]c2=O)cc(Br)c1OC yielded an AC50 of 13.9 µM.
In the case of CCNc1ccccc1CP(=O)(c1ccccc1)c1ccccc1O (configuration not stated), the AC50 is reported as 22.6 µM.
With COc1ccc(Nc2cnn(-c3nc4ccccc4s3)c(=O)c2Cl)cc1 the AC50 was > 38 µM (inactive).
In the case of Cc1[nH]nc2c1C(c1cccc(OC(=O)N3CCOCC3)c1)C(C#N)=C(N)O2 (configuration not stated), the AC50 is reported as > 38 µM (inactive).
